Assay results reported in ChEMBL document CHEMBL1201862, “PubChem BioAssay data set” (2004).
Activity calls are given as the source filed them.

Assays:
[1] = target: Cyclin-dependent kinase 5/CDK5 activator 1 (Homo sapiens, UniProt Q00535); assay: blockade of human CDK5 activity – biochemical, cherry-picked samples, set 2, dose response (AID 504545)
Bcl-2-like protein 10 = target: T1, Bcl-2-like protein 10 (Homo sapiens, UniProt Q9HD36); assay: Bcl-B/TR3 peptide binding disruption – biochemical, fluorescence polarization, FITC-TR3 peptide, selectivity assay for Bfl-1 inhibitor project, primary screen (AID 748);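 note: fluorescence polarization from a fluorescein-labelled TR3 peptide binding purified Bcl-B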
T1 sequence (Q9HD36 whole entry): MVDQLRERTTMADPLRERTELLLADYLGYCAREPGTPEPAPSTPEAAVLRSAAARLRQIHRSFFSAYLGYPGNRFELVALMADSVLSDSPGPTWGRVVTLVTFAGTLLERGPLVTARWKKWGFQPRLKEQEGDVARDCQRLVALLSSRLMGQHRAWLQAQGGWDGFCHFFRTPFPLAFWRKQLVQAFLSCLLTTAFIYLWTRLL

[2] = target: T2, DNA repair and recombination protein RAD54-like (Homo sapiens, UniProt Q92698); assay: RAD54 Holliday junction migration blockers – biochemical, fluorescence, cherry-picked samples, dose series, confirmation (AID 651657); assay type: functional
T2 sequence (Q92698 whole entry): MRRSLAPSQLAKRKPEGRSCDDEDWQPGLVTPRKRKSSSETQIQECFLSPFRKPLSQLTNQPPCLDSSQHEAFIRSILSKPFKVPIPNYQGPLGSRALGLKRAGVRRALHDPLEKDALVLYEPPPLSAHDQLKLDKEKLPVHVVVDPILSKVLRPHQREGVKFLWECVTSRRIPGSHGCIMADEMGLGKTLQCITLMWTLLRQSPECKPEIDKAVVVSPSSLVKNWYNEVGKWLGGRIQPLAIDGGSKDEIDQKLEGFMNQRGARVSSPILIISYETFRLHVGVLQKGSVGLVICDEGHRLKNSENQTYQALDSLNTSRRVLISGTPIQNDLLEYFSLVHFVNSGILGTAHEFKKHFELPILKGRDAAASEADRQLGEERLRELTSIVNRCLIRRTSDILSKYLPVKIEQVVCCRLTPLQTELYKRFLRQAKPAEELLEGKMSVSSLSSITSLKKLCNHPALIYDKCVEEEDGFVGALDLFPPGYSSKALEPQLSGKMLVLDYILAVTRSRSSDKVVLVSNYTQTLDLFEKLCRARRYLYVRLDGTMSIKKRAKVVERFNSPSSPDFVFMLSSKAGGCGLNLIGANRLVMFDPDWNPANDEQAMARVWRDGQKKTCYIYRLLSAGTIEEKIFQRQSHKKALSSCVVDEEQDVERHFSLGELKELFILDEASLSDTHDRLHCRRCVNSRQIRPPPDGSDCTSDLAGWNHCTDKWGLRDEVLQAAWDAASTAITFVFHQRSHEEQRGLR

Cytochrome P450 2C9 = Cytochrome P450 2C9 (Homo sapiens, UniProt P11712); conditions: Potency
[3] = target: T3, Polyadenylate-binding protein 1 (Homo sapiens, UniProt P11940); assay: blockers of PABP interaction with poly(A) – biochemical, fluorescence polarization, […] (AID 2014)
[4] = target: Eukaryotic translation initiation factor 4H (Homo sapiens, UniProt Q15056); assay: eIF4H binding inhibition – biochemical, uHTS, fluorescence polarization, translation initiation inhibitor project, primary screen (AID 2012)
[5] = target: DNA dC->dU-editing enzyme APOBEC-3G (Homo sapiens, UniProt Q9HC16); assay type: functional;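 note: Dose-response counterscreen measuring inhibition of APOBEC3G DNA deaminase activity, run while confirming APOBEC3A inhibitors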
[6] = target: DNA dC->dU-editing enzyme APOBEC-3A (Homo sapiens, UniProt P31941); assay: Dose Response confirmation of small molecule APOBEC3A DNA Deaminase Inhibitors via a fluorescence-based single-stranded DNA deaminase assay. [Related pubchem assays (depositor defined):AID493011, AID493024]; assay type: functional
Aspartyl aminopeptidase = target: T4, Aspartyl aminopeptidase (Plasmodium falciparum 3D7, UniProt Q8I2J3)
T4 sequence (Q8I2J3 whole entry): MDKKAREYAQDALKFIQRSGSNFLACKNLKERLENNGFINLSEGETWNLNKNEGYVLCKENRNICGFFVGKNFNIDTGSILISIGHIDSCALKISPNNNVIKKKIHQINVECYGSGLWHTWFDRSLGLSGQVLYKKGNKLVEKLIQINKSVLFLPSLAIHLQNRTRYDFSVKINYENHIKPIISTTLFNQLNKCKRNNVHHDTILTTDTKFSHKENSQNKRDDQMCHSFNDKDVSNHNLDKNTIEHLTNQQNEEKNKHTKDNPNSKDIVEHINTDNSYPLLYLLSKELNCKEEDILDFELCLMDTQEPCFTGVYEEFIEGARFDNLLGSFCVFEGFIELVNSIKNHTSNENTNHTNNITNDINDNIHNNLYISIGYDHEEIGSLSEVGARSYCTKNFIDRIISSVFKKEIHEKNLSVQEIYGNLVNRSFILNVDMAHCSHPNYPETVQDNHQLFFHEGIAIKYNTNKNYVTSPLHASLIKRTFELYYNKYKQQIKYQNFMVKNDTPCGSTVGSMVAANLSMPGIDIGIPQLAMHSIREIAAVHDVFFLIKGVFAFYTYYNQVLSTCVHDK

Leucine aminopeptidase = target: T5, Leucine aminopeptidase (Plasmodium falciparum 3D7, UniProt Q8IL11); assay: P. falciparum M17LAP inhibitors, primary screen, biochemical, fluorogenic H-Leu-NHMec substrate, 1536-well (AID 1619); assay type: functional
T5 sequence (Q8IL11 whole entry): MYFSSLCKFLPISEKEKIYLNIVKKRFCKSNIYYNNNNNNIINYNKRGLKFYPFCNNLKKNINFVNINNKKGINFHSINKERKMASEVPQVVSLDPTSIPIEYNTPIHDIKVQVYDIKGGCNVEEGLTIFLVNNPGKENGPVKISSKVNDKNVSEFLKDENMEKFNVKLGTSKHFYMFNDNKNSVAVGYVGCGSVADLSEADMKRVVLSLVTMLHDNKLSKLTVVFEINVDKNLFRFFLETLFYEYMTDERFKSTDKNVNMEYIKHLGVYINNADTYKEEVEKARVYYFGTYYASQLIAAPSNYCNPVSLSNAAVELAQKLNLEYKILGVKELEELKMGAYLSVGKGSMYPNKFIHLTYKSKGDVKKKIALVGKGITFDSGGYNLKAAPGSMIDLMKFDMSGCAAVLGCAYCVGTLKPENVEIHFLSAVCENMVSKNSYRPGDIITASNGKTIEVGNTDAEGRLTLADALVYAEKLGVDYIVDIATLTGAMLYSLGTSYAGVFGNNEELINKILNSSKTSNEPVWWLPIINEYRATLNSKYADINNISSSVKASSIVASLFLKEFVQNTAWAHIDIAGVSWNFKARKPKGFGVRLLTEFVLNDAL

Procathepsin L = Procathepsin L (Homo sapiens, UniProt P07711)
[7] = target: Neurotensin receptor type 1 (Homo sapiens, UniProt P30989); assay type: functional;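 note: Image-based confirmatory dose-response assay measuring agonist activity at NTR1; NTR1-expressing U2OS osteosarcoma cells imaged for beta-arrestin GFP spot formation; agonist potency where compounds increase beta-arrestin recruitment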
[8] = A cytotoxicity screen of small molecule inhibitors of the PhoP region in Salmonella typhi identified in the primary screen. [Related pubchem assays: 1850, 1864, 1985 ]; assay type: functional
[9] = target: T3, Polyadenylate-binding protein 1; assay: MLLE domain peptide-binding blockers, IC50 – biochemical, fluorescence polarization, FITC-PAM2 peptide, dose response (AID 602259); assay type: functional; conditions: read-out: IC50_Mean
Protein Rev = Protein Rev (Human immunodeficiency virus type 1 group M subtype B (isolate HXB2)(HIV-1), UniProt P04618); assay: blockers of HIV Rev/RRE RNA complex – biochemical, fluorescence polarization, HIV-1, dose response (AID 434976); design: species or system Human immunodeficiency virus 1
[10] = target: Female germline-specific tumor suppressor gld-1 (Caenorhabditis elegans, UniProt Q17339); assay: blockers of GLD-1/TGE RNA complex formation – biochemical, fluorescence polarization, C. elegans, dose response (AID 2802);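 note: fluorescence polarization of labeled TGE RNA bound by purified gld-1 protein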
[11] = target: T3, Polyadenylate-binding protein 1; assay: MLLE binding blockers, Cy5 peptide tracer – biochemical, fluorescence polarization, Cy5-PAM2 peptide, secondary, miRNA deadenylation inhibitor project, dose response (AID 602260); assay type: functional; conditions: read-out: IC50_Mean
[12] = target: Acyl-homoserine lactone acylase PvdQ (Pseudomonas aeruginosa (strain LESB58), UniProt Q9I194); assay: PvdQ acylase enzyme activity blockers – biochemical, fluorescence, plate reader and imaging, cherry-picks, dose response (AID 493231)
[13] = viability loss in THP-1 monocytes – THP-1 cells, cytotoxicity control for Vif-APOBEC3G degradation inhibitor project, dose response (AID 1117359); assay type: functional; conditions: THP-1
Protein Tat = Protein Tat (Human immunodeficiency virus type 1 group M subtype B (isolate HXB2)(HIV-1), UniProt P04608); assay type: functional;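 note: tat binding to TAR RNA read out by fluorescence polarization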
Protein Tat, sequence (P04608 whole entry): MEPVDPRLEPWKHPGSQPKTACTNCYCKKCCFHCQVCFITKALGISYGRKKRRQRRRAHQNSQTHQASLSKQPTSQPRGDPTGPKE

T3 sequence (P11940 whole entry): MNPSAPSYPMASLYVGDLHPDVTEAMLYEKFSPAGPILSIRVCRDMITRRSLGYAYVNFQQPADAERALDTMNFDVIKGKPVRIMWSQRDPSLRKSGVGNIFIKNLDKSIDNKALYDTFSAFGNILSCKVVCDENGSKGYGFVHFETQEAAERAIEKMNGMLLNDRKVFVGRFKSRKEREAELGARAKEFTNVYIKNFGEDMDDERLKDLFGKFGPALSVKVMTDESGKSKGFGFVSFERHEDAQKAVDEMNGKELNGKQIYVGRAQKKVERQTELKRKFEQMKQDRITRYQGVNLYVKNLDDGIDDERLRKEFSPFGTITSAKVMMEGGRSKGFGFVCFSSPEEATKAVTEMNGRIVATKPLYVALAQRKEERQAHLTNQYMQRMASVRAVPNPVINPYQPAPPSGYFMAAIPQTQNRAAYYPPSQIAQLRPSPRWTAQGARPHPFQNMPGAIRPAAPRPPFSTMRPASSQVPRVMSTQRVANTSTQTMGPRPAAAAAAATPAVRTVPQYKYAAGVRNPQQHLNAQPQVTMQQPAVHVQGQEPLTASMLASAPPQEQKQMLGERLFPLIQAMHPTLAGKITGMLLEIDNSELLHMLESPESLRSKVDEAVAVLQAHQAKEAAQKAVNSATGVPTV
Procathepsin L, sequence (P07711 whole entry): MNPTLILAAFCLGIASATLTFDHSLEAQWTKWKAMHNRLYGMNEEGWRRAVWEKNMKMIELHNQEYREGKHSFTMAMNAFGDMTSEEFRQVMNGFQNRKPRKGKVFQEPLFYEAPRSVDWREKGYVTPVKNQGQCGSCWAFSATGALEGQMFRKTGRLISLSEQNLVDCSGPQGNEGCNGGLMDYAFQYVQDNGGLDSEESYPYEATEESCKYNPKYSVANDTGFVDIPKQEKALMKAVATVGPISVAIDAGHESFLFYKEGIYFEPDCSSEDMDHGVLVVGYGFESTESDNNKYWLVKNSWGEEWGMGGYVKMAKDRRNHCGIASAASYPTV
Female germline-specific tumor suppressor gld-1, sequence (Q17339 whole entry): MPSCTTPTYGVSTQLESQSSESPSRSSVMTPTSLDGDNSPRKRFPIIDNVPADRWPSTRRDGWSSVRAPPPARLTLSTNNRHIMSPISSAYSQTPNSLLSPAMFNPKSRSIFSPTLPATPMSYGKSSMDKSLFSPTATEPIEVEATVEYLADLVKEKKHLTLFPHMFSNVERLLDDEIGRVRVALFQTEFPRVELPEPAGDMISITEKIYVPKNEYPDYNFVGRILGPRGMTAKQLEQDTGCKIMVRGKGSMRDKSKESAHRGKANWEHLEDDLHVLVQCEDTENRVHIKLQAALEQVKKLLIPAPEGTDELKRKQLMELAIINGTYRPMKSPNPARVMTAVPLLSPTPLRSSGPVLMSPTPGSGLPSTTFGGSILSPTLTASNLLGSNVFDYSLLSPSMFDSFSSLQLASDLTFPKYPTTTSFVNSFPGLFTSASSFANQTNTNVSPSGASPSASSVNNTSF
Acyl-homoserine lactone acylase PvdQ, sequence (Q9I194 24-193 limits assumed): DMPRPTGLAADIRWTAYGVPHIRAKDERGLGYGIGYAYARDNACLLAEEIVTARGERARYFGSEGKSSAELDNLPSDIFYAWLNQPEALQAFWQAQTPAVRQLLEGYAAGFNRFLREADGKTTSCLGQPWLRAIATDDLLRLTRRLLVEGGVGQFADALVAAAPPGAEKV
Acyl-homoserine lactone acylase PvdQ, sequence (Q9I194 217-762 limits assumed): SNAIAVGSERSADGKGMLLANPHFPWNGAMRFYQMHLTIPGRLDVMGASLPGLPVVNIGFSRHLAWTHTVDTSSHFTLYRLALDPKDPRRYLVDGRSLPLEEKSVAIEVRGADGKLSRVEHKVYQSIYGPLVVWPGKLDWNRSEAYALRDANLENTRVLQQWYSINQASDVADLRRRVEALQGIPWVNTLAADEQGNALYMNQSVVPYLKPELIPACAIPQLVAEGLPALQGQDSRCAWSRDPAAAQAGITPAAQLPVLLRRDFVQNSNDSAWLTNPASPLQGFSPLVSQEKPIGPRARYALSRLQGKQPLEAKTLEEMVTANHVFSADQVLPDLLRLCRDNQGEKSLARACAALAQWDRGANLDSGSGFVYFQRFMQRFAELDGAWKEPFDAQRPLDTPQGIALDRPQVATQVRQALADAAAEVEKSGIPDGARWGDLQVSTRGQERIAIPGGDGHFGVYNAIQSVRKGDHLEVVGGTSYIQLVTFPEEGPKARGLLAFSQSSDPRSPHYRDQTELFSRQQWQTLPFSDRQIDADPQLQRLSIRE
Cytochrome P450 2C9, sequence (P11712 whole entry): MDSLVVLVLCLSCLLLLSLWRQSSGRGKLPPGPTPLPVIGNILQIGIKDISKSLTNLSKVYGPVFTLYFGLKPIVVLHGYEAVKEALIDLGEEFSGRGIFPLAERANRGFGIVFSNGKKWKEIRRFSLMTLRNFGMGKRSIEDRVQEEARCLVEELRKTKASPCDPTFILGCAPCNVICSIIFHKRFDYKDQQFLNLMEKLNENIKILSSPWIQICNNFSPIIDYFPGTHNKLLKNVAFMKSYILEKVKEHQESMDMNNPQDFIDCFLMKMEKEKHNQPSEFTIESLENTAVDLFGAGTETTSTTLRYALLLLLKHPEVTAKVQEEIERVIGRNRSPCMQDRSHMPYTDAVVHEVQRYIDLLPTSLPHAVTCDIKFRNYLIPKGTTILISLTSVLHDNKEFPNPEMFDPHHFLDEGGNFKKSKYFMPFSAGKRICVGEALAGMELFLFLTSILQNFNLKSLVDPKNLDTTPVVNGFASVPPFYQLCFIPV
Cyclin-dependent kinase 5/CDK5 activator 1, sequence (Q00535 whole entry): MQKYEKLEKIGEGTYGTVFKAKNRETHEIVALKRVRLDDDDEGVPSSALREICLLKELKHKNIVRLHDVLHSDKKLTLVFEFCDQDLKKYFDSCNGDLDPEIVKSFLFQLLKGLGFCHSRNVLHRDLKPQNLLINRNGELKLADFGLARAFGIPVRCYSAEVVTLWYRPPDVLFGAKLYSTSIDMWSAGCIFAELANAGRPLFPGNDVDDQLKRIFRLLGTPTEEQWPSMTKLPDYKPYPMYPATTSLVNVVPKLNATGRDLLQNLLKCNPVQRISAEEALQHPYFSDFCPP
Cyclin-dependent kinase 5/CDK5 activator 1, sequence (Q15078 whole entry, further chain): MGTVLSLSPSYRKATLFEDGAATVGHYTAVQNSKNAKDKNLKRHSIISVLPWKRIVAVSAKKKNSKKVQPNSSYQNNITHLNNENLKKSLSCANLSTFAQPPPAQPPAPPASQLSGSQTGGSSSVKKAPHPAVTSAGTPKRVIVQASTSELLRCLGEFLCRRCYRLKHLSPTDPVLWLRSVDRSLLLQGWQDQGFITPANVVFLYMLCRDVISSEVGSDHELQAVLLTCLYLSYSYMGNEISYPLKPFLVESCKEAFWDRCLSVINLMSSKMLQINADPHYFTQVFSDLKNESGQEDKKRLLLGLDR
Protein Rev, sequence (P04618 whole entry): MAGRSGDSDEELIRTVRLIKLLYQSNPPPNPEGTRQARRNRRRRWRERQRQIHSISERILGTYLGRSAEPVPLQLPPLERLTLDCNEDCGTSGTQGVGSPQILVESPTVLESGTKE
DNA dC->dU-editing enzyme APOBEC-3G, sequence (Q9HC16 whole entry): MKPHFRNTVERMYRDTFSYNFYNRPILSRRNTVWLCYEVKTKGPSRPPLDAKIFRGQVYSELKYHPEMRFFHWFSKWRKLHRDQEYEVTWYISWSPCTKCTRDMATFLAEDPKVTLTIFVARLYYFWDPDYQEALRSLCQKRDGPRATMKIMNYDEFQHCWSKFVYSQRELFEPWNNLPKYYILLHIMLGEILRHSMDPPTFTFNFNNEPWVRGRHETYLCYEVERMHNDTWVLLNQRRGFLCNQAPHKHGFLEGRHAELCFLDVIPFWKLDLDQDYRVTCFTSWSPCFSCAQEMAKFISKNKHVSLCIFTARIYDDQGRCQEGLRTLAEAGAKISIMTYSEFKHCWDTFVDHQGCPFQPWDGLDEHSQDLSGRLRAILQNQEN
DNA dC->dU-editing enzyme APOBEC-3A, sequence (P31941 whole entry): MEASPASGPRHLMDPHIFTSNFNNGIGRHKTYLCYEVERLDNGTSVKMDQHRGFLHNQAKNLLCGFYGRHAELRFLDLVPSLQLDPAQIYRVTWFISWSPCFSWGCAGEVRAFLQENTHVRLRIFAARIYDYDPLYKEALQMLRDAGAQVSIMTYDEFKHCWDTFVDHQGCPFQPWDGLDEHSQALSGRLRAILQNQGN
Neurotensin receptor type 1, sequence (P30989 whole entry): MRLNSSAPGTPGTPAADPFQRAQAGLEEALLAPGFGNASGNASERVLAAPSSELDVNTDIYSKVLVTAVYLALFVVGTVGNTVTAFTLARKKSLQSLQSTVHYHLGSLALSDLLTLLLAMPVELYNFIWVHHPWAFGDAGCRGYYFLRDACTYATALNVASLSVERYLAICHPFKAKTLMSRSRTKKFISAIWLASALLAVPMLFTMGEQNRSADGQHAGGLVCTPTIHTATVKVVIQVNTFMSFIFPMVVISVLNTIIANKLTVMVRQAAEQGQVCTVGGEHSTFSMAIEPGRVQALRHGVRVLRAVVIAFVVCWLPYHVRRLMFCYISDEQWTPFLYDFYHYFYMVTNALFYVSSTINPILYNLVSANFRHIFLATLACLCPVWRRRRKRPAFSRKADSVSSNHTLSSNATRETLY

COc1cc(C(=O)N2CCN(c3ccccn3)CC2)cc(OC)c1OC
AC50 [1]: 2.75 µM (active)

NC(=O)c1cc([N+](=O)[O-])c(Cl)cc1NCc1cccnc1
AC50 [1]: 14.3 µM (active)

COc1cc2c(C#N)c(N3CCN(C)CC3)nc(N)c2c(N)n1
IC50 (Bcl-2-like protein 10): > 100 µM (inactive)
AC50 [2]: 28.9 µM (active)

NCCC[C@@H](CC(=O)N[C@@H]1CCCC[C@H]1C(=O)N[C@H](CC(=O)N[C@@H](CCC(=O)O)CC(=O)O)Cc1ccccc1)NC(=O)C[C@H](CO)NC(=O)[C@@H]1CCCC[C@H]1N
AC50 (Cytochrome P450 2C9): 39.8 µM (inconclusive)

CCN1C(NCCOC)=N[C@@H](c2cccc(F)c2)C(C(=O)OC)=C1C
IC50 [3]: 12.8 µM (active)
IC50 [4]: > 100 µM (inactive)
IC50 [5]: 5.2 µM (active)
IC50 [6]: 3.86 µM (active)

O=C(CSc1nnc[nH]1)OCN1C(=O)c2ccccc2C1=O
IC50 (Aspartyl aminopeptidase): 0.35 µM (active)
IC50 (Leucine aminopeptidase): 64.4 µM (active)
IC50 (Procathepsin L): > 59.6 µM (not active)

CCCCn1c(SCC(=O)N2CCC(C)CC2)nc2cc(S(N)(=O)=O)ccc21
EC50 [7]: 20.7 µM (inactive)

COc1ccc(-c2nc3n(n2)C(c2cccnc2)C(C(N)=O)=C(C)N3)cc1 (centres undefined)
IC50 (Bcl-2-like protein 10): > 100 µM (inactive)

COc1nnc(-c2ccc(N3CCOCC3)c(NC(=O)c3ccc(C)cc3)c2)c2ccccc12
EC50 [8]: > 50 µM (active)

Cc1ccc[n+](-c2nc([O-])sc2C=NNc2ccc([N+](=O)[O-])cc2)c1
IC50 [9]: 33.3 µM (inactive)
IC50 (Protein Rev): 10.1 µM (not active)
IC50 [10]: 3.96 µM (active)
IC50 [11]: > 66 µM (inactive)

Cc1cc(C)nc(N(C#N)Cc2ccc(Cl)cc2)n1
AC50 [12]: 21.9 µM (active)

Cc1ccc(NC2=NCCCS2)cc1Cl
EC50 [8]: > 50 µM (active)

COc1ccc(/C=N/c2c(-c3ccco3)nc3ccccn23)cc1OC
CC50 [13]: > 40 µM (active)
IC50 (Protein Tat): 8.15 µM (inconclusive)
IC50 (Protein Rev): 56.1 µM (not active)
IC50 [10]: 3.71 µM (active)

Cc1cc(C)nc(N(C#N)Cc2ccccc2)n1
AC50 [12]: 9.18 µM (active)

CN1CCN(c2ncc3nc(-c4cccc(C#N)c4)c(=O)n(C[C@H]4CCCO4)c3n2)CC1
AC50 (Cytochrome P450 2C9): 25.1 µM (inconclusive)

CCOC(=O)NC(=O)COC(=O)c1ccc(Sc2nnc[nH]2)c([N+](=O)[O-])c1
IC50 (Aspartyl aminopeptidase): 0.609 µM (active)
IC50 (Procathepsin L): > 59.6 µM (not active)
